Source: ChEMBL document CHEMBL5120763 (J Nat Prod, 2022)
Calls of active or inactive are those of the source. No cut-off for these calls is given here.

Assays:
NCI-H1299 [1] = assay: Induction of apoptosis in human NCI-H1299 cells assessed as reduction in Bcl2 levels at 0.25 to 1 uM incubated for 24 hrs by Western blot analysis; assay type: functional, cell-based; settings: dose 0.25-1 µM
NCI-H1299 [2] = assay: Induction of apoptosis in human NCI-H1299 cells assessed as late apoptosis cells level at 1 uM incubated for 24 hrs by FITC annexin V/PI double-staining based flow cytometry (reference value: 4.27%); assay type: functional
NCI-H1299 [3] = assay: Induction of apoptosis in human NCI-H1299 cells assessed as increase in cleaved PARP1 levels at 0.25 to 1 uM incubated for 24 hrs by Western blot analysis; assay type: functional, cell-based; settings: dose 0.25-1 µM
PC-9 [4] = assay: Induction of apoptosis in human PC-9 cells assessed as increase in cleaved PARP1 levels at 0.25 to 1 uM incubated for 48 hrs by Western blot analysis; assay type: functional, cell-based; settings: dose 0.25-1 µM
NCI-H1299 [5] = assay: Induction of apoptosis in human NCI-H1299 cells assessed as late apoptosis cells level at 0.5 uM incubated for 24 hrs by FITC annexin V/PI double-staining based flow cytometry (reference value: 4.27%); assay type: functional
PC-9 [6] = assay: Induction of apoptosis in human PC-9 cells assessed as reduction in Bcl2 levels at 0.25 to 1 uM incubated for 48 hrs by Western blot analysis; assay type: functional, cell-based; settings: dose 0.25-1 µM
[7] = Toxicity in BALB/c nude mouse xenografted with human A549 cells assessed as toxic effect on liver at 1 to 2 mg/kg, ip dosed every 2 days for total of 18 days by H and E staining; assay type: organism-based; settings: in vivo, 432 h, dose 1-2 mg/kg, time 18 day
[8] = Toxicity in BALB/c nude mouse xenografted with human A549 cells assessed as toxic effect on lung at 1 to 2 mg/kg, ip dosed every 2 days for total of 18 days by H and E staining; assay type: organism-based; settings: in vivo, 432 h, dose 1-2 mg/kg, time 18 day
[9] = Toxicity in BALB/c nude mouse xenografted with human A549 cells assessed as toxic effect on kidney at 1 to 2 mg/kg, ip dosed every 2 days for total of 18 days by H and E staining; assay type: organism-based; settings: in vivo, 432 h, dose 1-2 mg/kg, time 18 day
NCI-H1299 [10] = assay: Induction of apoptosis in human NCI-H1299 cells at 0.25 to 1 uM incubated for 24 hrs by FITC annexin V/PI double-staining based flow cytometry; assay type: functional, cell-based; settings: dose 0.25-1 µM, DDE = dose-dependent effect
PC-9 [11] = assay: Induction of apoptosis in human PC-9 cells assessed as late apoptosis cells level at 0.5 uM incubated for 48 hrs by FITC annexin V/PI double-staining based flow cytometry (reference value: 2.07%); assay type: functional
[12] = Toxicity in BALB/c nude mouse xenografted with human A549 cells assessed as induction of body weight loss at 1 to 2 mg/kg, ip dosed every 2 days for total of 18 days; assay type: organism-based; settings: in vivo, 432 h, dose 1-2 mg/kg, time 18 day
PC-9 [13] = assay: Induction of apoptosis in human PC-9 cells assessed as late apoptosis cells level at 0.25 uM incubated for 48 hrs by FITC annexin V/PI double-staining based flow cytometry (reference value: 2.07%); assay type: functional
A549 [14] = assay: Increase in cleaved PARP1 protein expression levels in tumor of BALB/c nude mouse xenografted with human A549 cells at 1 to 2 mg/kg, ip dosed every 2 days for total of 18 days by Western blot analysis; assay type: functional, organism-based; settings: dose 1-2 mg/kg, time 18.0 day
PC-9 [15] = assay: Induction of apoptosis in human PC-9 cells at 0.25 to 1 uM incubated for 48 hrs by FITC annexin V/PI double-staining based flow cytometry; assay type: functional, cell-based; settings: dose 0.25-1 µM, DDE = dose-dependent effect
A549 [16] = assay: Antitumor activity against human A549 cells xenografted in BALB/c nude mouse assessed as reduction in tumor size at 2 mg/kg, ip dosed every 2 days for total of 18 days; assay type: functional, organism-based; settings: time 18.0 day
[17] = Toxicity in BALB/c nude mouse xenografted with human A549 cells assessed as toxic effect on heart at 1 to 2 mg/kg, ip dosed every 2 days for total of 18 days by H and E staining; assay type: organism-based; settings: in vivo, dose 1-2 mg/kg
PC-9 [18] = assay: Induction of apoptosis in human PC-9 cells assessed as late apoptosis cells level at 1 uM incubated for 48 hrs by FITC annexin V/PI double-staining based flow cytometry (reference value: 2.07%); assay type: functional
NCI-H1299 [19] = assay: Induction of apoptosis in human NCI-H1299 cells assessed as late apoptosis cells level at 0.25 uM incubated for 24 hrs by FITC annexin V/PI double-staining based flow cytometry (reference value: 4.27%); assay type: functional

Q: For `C[C@]12CC[C@H](O)C[C@@]1(O)CC[C@@H]1[C@@H]2CC[C@]2(C)[C@@H](c3ccc(=O)oc3)CC[C@]12O` [TELOCINOBUFAGIN], which Activity (NCI-H1299 [1]) is on record?
A: Active

Q: And the Activity (NCI-H1299 [2])?
A: 38.41%

Q: What about the Activity (NCI-H1299 [3]) of the same compound?
A: Active

Q: What about the Activity (PC-9 [4]) of the same compound?
A: Active

Q: What about the Activity (NCI-H1299 [5]) of the same compound?
A: 25.06%

Q: What about the Activity (PC-9 [6]) of the same compound?
A: Active

Q: And the Activity [7]?
A: Non-Toxic

Q: What about the Activity [8] of the same compound?
A: Non-Toxic

Q: What about the Activity [9] of the same compound?
A: Non-Toxic

Q: And the Activity (NCI-H1299 [10])?
A: Dde

Q: And the Activity (PC-9 [11])?
A: 11.37%

Q: What about the Activity [12] of the same compound?
A: Non-Toxic

Q: And the Activity (PC-9 [13])?
A: 6.66%

Q: What about the Activity (A549 [14]) of the same compound?
A: Active

Q: And the Activity (PC-9 [15])?
A: Dde

Q: What about the Activity (A549 [16]) of the same compound?
A: Active

Q: What about the Activity [17] of the same compound?
A: Non-Toxic

Q: What about the Activity (PC-9 [18]) of the same compound?
A: 22.7%

Q: And the Activity (NCI-H1299 [19])?
A: 16.98%
